# Source: patent publication EP4603105A1, “PHARMACEUTICAL COMPOSITION CONTAINING CYCLIC COMPOUND HAVING SELECTIVE KRAS INHIBITORY EFFECT AGAINST HRAS AND NRAS” (CHUGAI SEIYAKU KABUSHIKI KAISHA, priority 2022, dated 2024)
# *1 amine or outer side, *2 acyl side, *3 side chain or, on linkers, in order; H or OH if unused. Where a SMILES comes first, the peptide text is derived from it. Bridges are numbered along the chain shown (N, C = ends). [ ]: non-standard residue; d: D form. The star is where a group is joined. hPhe(3-Cl-4-CF3) = N[C@@H](CCc1ccc(C(F)(F)F)c(Cl)c1)C(=O)O; NPrPhe(4-CF3) = CCCN[C@@H](Cc1ccc(C(F)(F)F)cc1)C(=O)O; Piperazinyl(4-(3-oxetanyl)) = C1OCC1N1CCN(*)CC1; X30 = CCN([C@H](C(=O)[*:2])C1CCCC1)[*:1]; NMeGly(cPent) = CN[C@H](C(=O)O)C1CCCC1; Pro(4,4-F2) = O=C(O)[C@@H]1CC(F)(F)CN1; Pro(4,4-Me2) = CC1(C)CN[C@H](C(=O)O)C1; NMeGly(cBu) = CN[C@H](C(=O)O)C1CCC1; Hyp = O=C(O)[C@@H]1C[C@@H](O)CN1; NMeD = CN[C@@H](CC(=O)O)C(=O)O; NMeL = CN[C@@H](CC(C)C)C(=O)O; Morpholide = C1CN(*)CCO1; Ac5c = NC1(C(=O)O)CCCC1; Aze = O=C(O)[C@@H]1CCN1; Ac4c = NC1(C(=O)O)CCC1; NEtG = CCNCC(=O)O; Sar = CNCC(=O)O
# Columns and labels:
# [1] = system: human lung cancer strain NCI-H441; format: cell-based
# Procedure, shortened: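 Signal came from […] measured per well once the reagent was added. Beforehand, cells were cultured at 37°C and 5% carbon dioxide on a compound series serially diluted in dimethyl sulfoxide.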
# [2] = target: GDP-bound NRAS wild-type protein (Homo sapiens, UniProt P01111); assay: Binding to NRAS by surface plasmon resonance (SPR), KD and KD ratio to KRAS
# Chain of GDP-bound NRAS wild-type protein (P01111 whole entry): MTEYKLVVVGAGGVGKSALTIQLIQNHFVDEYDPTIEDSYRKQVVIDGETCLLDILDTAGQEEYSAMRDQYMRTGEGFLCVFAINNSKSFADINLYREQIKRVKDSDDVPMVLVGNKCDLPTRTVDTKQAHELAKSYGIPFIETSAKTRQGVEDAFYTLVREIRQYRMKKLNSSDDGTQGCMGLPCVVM
# Procedure, shortened: (§1)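 Recombinant RAS proteins bearing a biotinylated Avi tag and loaded with GDP served as the captured ligand, recaptured fresh every cycle. Binding responses were referenced to an uncoated surface and a buffer-only blank cycle. Dissociation constants were obtained by 1:1 model fitting at 30°C.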
# HRAS wild-type protein = HRAS wild-type protein (Homo sapiens, UniProt P01112); assay: Binding to HRAS by surface plasmon resonance (SPR), KD and KD ratio to KRAS
# Chain of HRAS wild-type protein (P01112 whole entry): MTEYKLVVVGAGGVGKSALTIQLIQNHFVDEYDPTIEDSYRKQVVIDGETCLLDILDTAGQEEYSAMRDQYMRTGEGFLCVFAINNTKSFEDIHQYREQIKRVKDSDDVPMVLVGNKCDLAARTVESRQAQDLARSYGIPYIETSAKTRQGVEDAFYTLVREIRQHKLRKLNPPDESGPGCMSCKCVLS
# Procedure, shortened: as §1
# [3] = ratio of the KD value with respect to GDP-bound NRAS wild-type protein to the KD value with respect to KRAS
# [4] = ratio of the KD value with respect to HRAS wild-type protein to the KD value with respect to KRAS
# [5] = ratio of KD for GDP-bound NRAS wild-type protein to KD for KRAS
# [6] = ratio of KD for HRAS wild-type protein to KD for KRAS
# [7] = ratio of KD value for GDP-bound NRAS wild-type protein to KD value for KRAS (SPR)
# [8] = ratio of KD value for HRAS wild-type protein to KD value for KRAS (SPR)
IC50 [1] [µM],SMILES,"NRAS /KRAS [2, 3]",HRAS /KRAS (HRAS wild-type protein; [4]),"NRAS /KRAS [2, 5]",HRAS /KRAS (HRAS wild-type protein; [6]),"NRAS /KRAS [2, 7]",HRAS /KRAS (HRAS wild-type protein; [8])
0.007,"CCCN1C(=O)[C@@H]2CCN2C(=O)CN(C)C(=O)[C@H]([C@@H](C)CC)NC(=O)[C@H](CC(C)C)N(C)C(=O)C[C@@H](C(=O)N2CCOCC2)N(C)C(=O)[C@H](C2CCCC2)N(C)C(=O)C2(CCCC2)NC(=O)[C@@H]2CC(C)(C)CN2C(=O)[C@H](CCc2ccc(C(F)(F)F)c(Cl)c2)NC(=O)CN(C)C(=O)[C@@H]1Cc1ccc(C(F)(F)F)cc1 [PP0456] ([NMeL]I[Sar][Aze][NPrPhe(4-CF3)][Sar][hPhe(3-Cl-4-CF3)][Pro(4,4-Me2)][Ac5c][NMeGly(cPent)][NMeD]-Morpholide; lactam N-11)",C (A compound having a KD ratio of 0.1 or more and less than 3 is denoted as C),C (A compound having a KD ratio of 0.1 or more and less than 3 is denoted as C),–,–,–,–
0.0066,CCCN1C(=O)CN(C)C(=O)CN(C)C(=O)[C@H]([C@@H](C)CC)NC(=O)[C@H](CC(C)C)N(C)C(=O)C[C@@H](C(=O)N2CCN(C3COC3)CC2)N(C)C(=O)[C@H](C2CCCC2)N(C)C(=O)C2(CCCC2)NC(=O)[C@@H]2CCCN2C(=O)[C@H](CCc2ccc(C(F)(F)F)c(Cl)c2)NC(=O)CN(C)C(=O)[C@@H]1Cc1ccc(C(F)(F)F)cc1 [PP0175] ([NMeL]I[Sar][Sar][NPrPhe(4-CF3)][Sar][hPhe(3-Cl-4-CF3)]P[Ac5c][NMeGly(cPent)][NMeD]-{Piperazinyl(4-(3-oxetanyl))}; lactam N-11),–,–,B (a compound having 3 or more and less than 10 is denoted as B),B (a compound having 3 or more and less than 10 is denoted as B),–,–
0.0034,CCO[C@@H]1C[C@H]2C(=O)NC3(CC(C)(C)C3)C(=O)N(C)[C@@H](C3CCCC3)C(=O)N(C)[C@H](C(=O)N3CCCC3)CC(=O)N(C)[C@H]3CCCCCc4ccc(cc4)C[C@@H](C(=O)N(C)CC(=O)N[C@@H](CCc4ccc(C(F)(F)F)c(OC)c4)C(=O)N2C1)N1CC/C=C\C[C@@H](C1=O)N(C)C(=O)CN(C)C(=O)[C@H]([C@@H](C)CC)NC3=O [PP3037],–,–,A (a compound having 10 or more and less than 20 is denoted as A),B (a compound having 3 or more and less than 10 is denoted as B),–,–
0.0084,"CCCN1C(=O)CN(C)C(=O)CN(CC)C(=O)[C@H]([C@@H](C)CC)NC(=O)[C@H](CC(C)C)N(C)C(=O)C[C@@H](C(=O)N2CCOCC2)N(C)C(=O)[C@H](C2CCCC2)N(C)C(=O)C2(CCCC2)NC(=O)[C@@H]2CC(C)(C)CN2C(=O)[C@H](CCc2ccc(C(F)(F)F)c(Cl)c2)NC(=O)CN(C)C(=O)[C@@H]1Cc1ccc(C(F)(F)F)cc1 [PP0450] ([NMeL]I[NEtG][Sar][NPrPhe(4-CF3)][Sar][hPhe(3-Cl-4-CF3)][Pro(4,4-Me2)][Ac5c][NMeGly(cPent)][NMeD]-Morpholide; lactam N-11)",B (a compound having 3 or more and less than 10 is denoted as B),C (A compound having a KD ratio of 0.1 or more and less than 3 is denoted as C),–,–,–,–
0.0797,CC[C@H](C)[C@@H]1NC(=O)[C@H](CC(C)C)N(C)C(=O)C[C@@H](C(=O)N2CCOCC2)N(C)C(=O)[C@H](C2CCCC2)N(C)C(=O)C2(CCC2)NC(=O)[C@@H]2[C@H](O)CCN2C(=O)[C@H](CCc2cc(F)c(C(F)(F)F)c(F)c2)NC(=O)CN(C)C(=O)[C@H](Cc2ccc(C(F)(F)F)cc2)N2CCCC[C@@H](C2=O)N(C)C(=O)CN(C)C1=O [PP0870],–,–,B (a compound having 3 or more and less than 10 is denoted as B),B (a compound having 3 or more and less than 10 is denoted as B),–,–
0.0134,CCO[C@@H]1C[C@H]2C(=O)NC3(CC(C)(C)C3)C(=O)N(C)[C@@H](C(CC)CC)C(=O)N(C)[C@H](C(=O)N(C)C)CC(=O)N(C)[C@@H](COC)C(=O)N[C@@H]([C@@H](C)CC)C(=O)N(C)CC(=O)N(C)[C@H]3C/C=C\CCN(C3=O)[C@@H](Cc3ccc(C(F)(F)F)cc3)C(=O)N(C)CC(=O)N[C@@H](CCc3ccc(C(F)(F)F)c(Cl)c3)C(=O)N2C1 [PP2126],A (a compound having 10 or more and less than 20 is denoted as A),B (a compound having 3 or more and less than 10 is denoted as B),–,–,–,–
0.014,CCCN1C(=O)CN(C)C(=O)CN(C)C(=O)[C@H]([C@@H](C)CC)NC(=O)[C@H](CC(C)C)N(C)C(=O)C[C@@H](C(=O)N2CCOCC2)N(C)C(=O)[C@H](C2CCCC2)N(CC)C(=O)C2(CCC2)NC(=O)[C@@H]2CCCN2C(=O)[C@H](CCc2ccc(C(F)(F)F)c(Cl)c2)NC(=O)CN(C)C(=O)[C@@H]1Cc1ccc(C(F)(F)F)cc1 [PP1952] ([NMeL]I[Sar][Sar][NPrPhe(4-CF3)][Sar][hPhe(3-Cl-4-CF3)]P[Ac4c][X30][NMeD]-Morpholide; lactam N-11),B (a compound having 3 or more and less than 10 is denoted as B),B (a compound having 3 or more and less than 10 is denoted as B),–,–,–,–
0.011,CCCN1C(=O)CN(C)C(=O)[C@@H]2CCN2C(=O)[C@H]([C@@H](C)CC)NC(=O)[C@H](CC(C)C)N(C)C(=O)C[C@@H](C(=O)N(C)C)N(C)C(=O)[C@H](C2CCCC2)N(C)C(=O)C2(CCCC2)NC(=O)[C@@H]2C[C@@H](OCC)CN2C(=O)[C@H](CCc2ccc(C(F)(F)F)c(Cl)c2)NC(=O)CN(C)C(=O)[C@@H]1Cc1ccc(C(F)(F)F)cc1 [PP0433] ([NMeL]I[Aze][Sar][NPrPhe(4-CF3)][Sar][hPhe(3-Cl-4-CF3)][Hyp](Et)[Ac5c][NMeGly(cPent)][NMeD]-NMe2; lactam N-11),B (a compound having 3 or more and less than 10 is denoted as B),B (a compound having 3 or more and less than 10 is denoted as B),–,–,–,–
0.79,CCO[C@@H]1C[C@H]2C(=O)N[C@]3(C)CCCCCC[C@@H](C(=O)N[C@@H]([C@@H](C)CC)C(=O)N(C)CC(=O)N(C)[C@H]4CCCCN(C4=O)[C@@H](Cc4ccc(C(F)(F)F)cc4)C(=O)N(C)CC(=O)N[C@@H](CCc4cc(F)c(C(F)(F)F)c(F)c4)C(=O)N2C1)N(C)C(=O)C[C@@H](C(=O)N1CCOCC1)N(C)C(=O)[C@H](C1CCCC1)N(C)C3=O [PP0992],–,–,B (a compound having 3 or more and less than 10 is denoted as B),B (a compound having 3 or more and less than 10 is denoted as B),–,–
0.0039,CCCN1C(=O)CN(C)C(=O)CN(C)C(=O)[C@H]([C@@H](C)CC)NC(=O)[C@H](C2CCC2)N(C)C(=O)C[C@@H](C(=O)N2CCOCC2)N(C)C(=O)[C@H](C2CCCC2)N(C)C(=O)C2(CCCC2)NC(=O)[C@@H]2CCCN2C(=O)[C@H](CCc2ccc(C(F)(F)F)c(Cl)c2)NC(=O)CN(C)C(=O)[C@@H]1Cc1ccc(C(F)(F)F)cc1 [PP0188] ([NMeGly(cBu)]I[Sar][Sar][NPrPhe(4-CF3)][Sar][hPhe(3-Cl-4-CF3)]P[Ac5c][NMeGly(cPent)][NMeD]-Morpholide; lactam N-11),–,–,B (a compound having 3 or more and less than 10 is denoted as B),C (A compound having a KD ratio of 0.1 or more and less than 3 is denoted as C),–,–
0.0031,CCO[C@@H]1C[C@H]2C(=O)NC3(CC(C)(C)C3)C(=O)N(C)[C@@H](C3CCCC3)C(=O)N(C)[C@H](C(=O)N(C)CC)CC(=O)N(C)[C@@H](COC)C(=O)N[C@@H]([C@@H](C)CC)C(=O)N(C)CC(=O)N(C)[C@H]3C/C=C\CCN(C3=O)[C@@H](Cc3ccc(C(F)(F)F)cc3)C(=O)N(C)CC(=O)N[C@@H](CCc3ccc(C(F)(F)F)c(OC)c3)C(=O)N2C1 [PP1679],–,–,–,–,A (a compound having 10 or more and less than 20 is denoted as A),A (a compound having 10 or more and less than 20 is denoted as A)
0.0209,CC[C@H](C)[C@@H]1NC(=O)[C@H](CC(C)C)NC(=O)C[C@@H](C(=O)N2CCOCC2)N(C)C(=O)[C@H](C2CCCC2)N(C)C(=O)C2(CCCC2)NC(=O)[C@@H]2CCCN2C(=O)[C@H](CCc2cc(F)c(C(F)(F)F)c(F)c2)NC(=O)CN(C)C(=O)[C@H](Cc2ccc(C(F)(F)F)cc2)N2CCCC[C@@H](C2=O)N(C)C(=O)CN(C)C1=O [PP0590],C (A compound having a KD ratio of 0.1 or more and less than 3 is denoted as C),B (a compound having 3 or more and less than 10 is denoted as B),–,–,–,–
0.0398,"CCCN1C(=O)CN(C)C(=O)CN(C)C(=O)[C@H]([C@@H](C)CC)NC(=O)[C@H](CC(C)C)N(C)C(=O)C[C@@H](C(=O)N(C)C)NC(=O)[C@H](C2CCCC2)N(C)C(=O)C2(CCCC2)NC(=O)[C@@H]2CC(F)(F)CN2C(=O)[C@H](CCc2ccc(C(F)(F)F)c(Cl)c2)NC(=O)CN(C)C(=O)[C@@H]1Cc1ccc(C(F)(F)F)cc1 [PP0357] ([NMeL]I[Sar][Sar][NPrPhe(4-CF3)][Sar][hPhe(3-Cl-4-CF3)][Pro(4,4-F2)][Ac5c][NMeGly(cPent)]D-NMe2; lactam N-11)",–,–,B (a compound having 3 or more and less than 10 is denoted as B),B (a compound having 3 or more and less than 10 is denoted as B),–,–
0.0099,CC[C@H](C)[C@@H]1NC(=O)[C@H](CC)N(C)C(=O)C[C@@H](C(=O)N(C)CC)N(C)C(=O)[C@H](C2CCCC2)N(C)C(=O)C2(CC(C)(C)C2)NC(=O)[C@@H]2C[C@H](C)CN2C(=O)[C@H](CCc2ccc(C(F)(F)F)c(Cl)c2)NC(=O)CN(C)C(=O)[C@H](Cc2ccc(C)cc2)N2CC/C=C\C[C@@H](C2=O)N(C)C(=O)CN(C)C1=O [PP1874],–,–,–,–,A (a compound having 10 or more and less than 20 is denoted as A),A (a compound having 10 or more and less than 20 is denoted as A)
